Reference: patent US11324832B2, “Tripartite modulators of endosomal G protein-coupled receptors” (Endosome Therapeutics, Inc., priority 2015, dated 2022)

Key:
CLR plus RAMP1 = biological target: T1, CLR plus RAMP1 (Homo sapiens, UniProt O60894+Q16602); assay: FRET ERK biosensors in HEK293 cells expressing CLR plus RAMP1; format: cell-based; details: endocytic inhibitor plus CGRP
T1 construct: expressed in transfected cells; host or cells: HEK293 (transient)
Protocol: HEK293 cells were transfected with 55 ng/well rat NK1R with N-terminal HA. 11 epitope tag (HA-NK1R) or CLR plus RAMP1 and 40 ng/well FRET biosensors. FRET was assessed 48 h after transfection, following serum restriction (0.5% FBS overnight). For experiments using clathrin or dynamin siRNA, cells were transfected with 55 ng/well rat HA-NK1R, 40 ng/well FRET biosensor and 25 nM/well scrambled, clathrin or dynamin ON-TARGETplus SMARTpool siRNA (GE Dharmacon). FRET was assessed 72 h after transfection, following serum restriction (0.5% FBS overnight). Cells were equilibrated in HBSS at 37° C. and FRET was analyzed using a GE Healthcare INCell 2000 Analyzer. For GFP/RFP emission ratio analysis, cells were sequentially excited using a FITC filter (490/20) with emission measured using dsRed (605/52) and FITC (525/36) filters, and a polychroic optimized for the FITC/dsRed filter pair (Quad4). For CFP/YFP emission ratio analysis, cells were sequentially excited using a CFP filter (430/24) with emission measured using YFP (535/30) and CFP (470/24) filters, and a polychroic optimized for the CFP/YFP filter pair (Quad3). Cells were imaged every 1 min, allowing image capture of 14 wells per minute. Baseline emission ratio images were captured for 4 min. […] Data were analyzed as described and expressed as emission ratios relative to baseline for each cell (F/F0). […]

ERK = ERK phosphorylation in rat lamina I dorsal horn neurons in vivo; details: i.t. 30 min before intraplantar capsaicin
Protocol: Painful peripheral stimuli activate ERK in NKiR-expressing spinal neurons, which coincides with receptor endocytosis and contributes to hyperalgesia. Intraplantar capsaicin stimulated ERK phosphorylation in lamina I dorsal horn neurons (FIG. 5B). […] Thus, capsaicin stimulates clathrin- and dynamin-dependent NK1R endocytosis and ERK activation in spinal neurons in vivo.
After 10 min, rats were transcardially perfused with PBS and then 4% PFA. The spinal cord was removed, immersion fixed in PFA (2 h, 4° C.), and cryoprotected (30% sucrose, PBS, 24 h, 4° C.). The spinal cord (T12 to L4) was embedded in OCT and […] serial coronal sections were cut into 48-well plates containing PBS. Free-floating sections were blocked in PBS containing 10% normal horse serum (1 h, RT). […]
Tissues and cells were observed using a Leica SP8 confocal microscope using HCX PL APO 40× (NA 1.30) and HCX PL APO 63× (NA 1.40) oil objectives. […] NK1R endocytosis and pERK expression were quantified using ImageJ. To quantify NK1R internalization in lamina I neurons, the border of the cytoplasm of the neuronal soma was defined by NeuN fluorescence, and NK1R fluorescence within 5 pixels (0.5 μm) of the border was defined as plasma membrane-associated receptor. The ratio of plasma membrane to cytosolic NK1R-IR fluorescence was determined in >6 lamina I neurons per condition. […]

NK1R = NK1R endocytosis in neurons of mouse dorsal horn; format: in vivo; details: intrathecal
[1] = test system: capsaicin-evoked mechanical hyperalgesia in mice; details: mouse, in vivo
Protocol: To evaluate the importance of NK1R, clathrin and dynamin, mice (C57BL/6, male, 6-10 weeks) were injected intrathecally (L3/L4) with vehicle, NK1R antagonist SR140,333, Dy4, Dy4 inact, PS2 or PS2 inact. After 30 min, intraplantar injections of vehicle or capsaicin were made into the left hindpaw. Mechanical hyperalgesia was measured by stimulation of the plantar surface of the left and right paws with von Frey filaments, and inflammatory edema was assessed by measuring left paw thickness with calipers.
Mice were acclimatized to the experimental apparatus and environment for 1-2 h on 2 successive days before experiments. Mechanical hyperalgesia was assessed by paw withdrawal to stimulation of the plantar surface of the hind-paw with graded von Frey filaments. On the day before the study, von Frey scores were measured in triplicate to establish a baseline for each animal. To assess edema of the paw, hindpaw thickness was measured using digital calipers before and after treatments. […] Capsaicin (5 μg), Complete Freund's Adjuvant (CFA, 2 mg/ml), or vehicle (capsaicin, 20% ethanol, 10% Tween 80, 70% saline; CFA, saline) was injected subcutaneously into the plantar surface of the left hindpaw (10 μl). von Frey scores (left and right paws) and paw thickness (left paw) were measured for 30-240 min after capsaicin, and 36-40 h after injection of CFA. […]

[2] = Solubility in low DMSO for electrophysiology; format: physicochemical; details: low concentrations of DMSO required for electrophysiology
Protocol: Slices of rat spinal cord were transferred to a recording chamber and superfused with normal ACSF (2 ml·min^−1, 36° C.). […] PS2 was not soluble in the low concentrations of DMSO required for electrophysiology. Large, NKiR-positive, presumed nociceptive lamina I neurons were visually identified as described (Imlach, W. L., et al., Molecular Pharmacology, 2015, 88, 460-428). Spontaneous currents were recorded in cell-attached configuration (Multiclamp 700B, Molecular Devices, Sunnyvale, Calif.), sampled at 10 kHz, high pass filtered at 1 Hz, and capacitatively coupled action potential events were analyzed using Axograph X, V 1.4.4 (Axograph). […] Recordings were sampled at 10 kHz and filtered with a high pass filter at 1 Hz and firing rate was measured in two-minute interval bins. […] The firing time was determined as the duration of the response to last action potential. To assess synaptic transmission, whole-cell configuration recordings were made under control conditions or after exposure to Dy4 or Dy4 inact; a bipolar stimulating electrode was placed at the dorsal root entry zone, and electrically-evoked excitatory postsynaptic currents recorded as described (Imlach, W. L., et al., Molecular Pharmacology, 2015, 88, 460-428).

T1 sequence (Q16602 23-461): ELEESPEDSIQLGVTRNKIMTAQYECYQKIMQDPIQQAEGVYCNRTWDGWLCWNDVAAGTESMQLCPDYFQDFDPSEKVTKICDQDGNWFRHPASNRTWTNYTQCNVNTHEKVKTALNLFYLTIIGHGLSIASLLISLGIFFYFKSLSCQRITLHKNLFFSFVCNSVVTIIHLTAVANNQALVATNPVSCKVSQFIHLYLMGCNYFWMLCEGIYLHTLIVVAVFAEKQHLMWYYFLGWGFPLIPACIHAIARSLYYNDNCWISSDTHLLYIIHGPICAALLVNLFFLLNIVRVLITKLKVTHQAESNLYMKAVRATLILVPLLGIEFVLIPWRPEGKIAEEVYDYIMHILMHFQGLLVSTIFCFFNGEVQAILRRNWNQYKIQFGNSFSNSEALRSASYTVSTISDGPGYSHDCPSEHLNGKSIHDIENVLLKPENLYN
T1 sequence (O60894 27-148): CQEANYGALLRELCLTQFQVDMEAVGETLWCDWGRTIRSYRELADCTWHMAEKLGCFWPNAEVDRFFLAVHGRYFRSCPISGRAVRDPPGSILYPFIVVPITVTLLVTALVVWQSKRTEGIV

effect on paw withdrawal responses of the uninjected right hind paw [1]	solubility [2]	SMILES	effect on CGRP activation of cytosolic ERK (CLR plus RAMP1)	effect on CGRP activation of nuclear ERK (CLR plus RAMP1)	effect on capsaicin-evoked activation of spinal ERK (ERK)	effect on capsaicin-, formalin- and CFA-evoked NK1R endocytosis in mouse dorsal horn neurons (NK1R)
did not affect		O=C(N/N=C/c1cc(O)c(O)cc1O)c1cc2ccccc2cc1O [Dy4]	prevented activation of nuclear but not cytosolic ERK	prevented activation of nuclear but not cytosolic ERK	prevented capsaicin-evoked activation of spinal ERK	inhibited
	not soluble	O=C1NC(=NS(=O)(=O)c2cccc3ccccc23)S/C1=C\c1ccc(Br)cc1 [PS2]			prevented capsaicin-evoked activation of spinal ERK	
